{"source": "patent US6448062B1", "about": "“Simultaneous cleaning and decontaminating compositions and methods” (priority 1998, dated 2002)", "molecules": {"B1": {"name": "Alcalase ® 2.5 L: commercial subtilisin A liquid concentrate, 2.5 Anson units per gram (Novo Nordisk) (protein, UniProt P00780 106-379, looked up)", "Subtilisin Carlsberg": "AQTVPYGIPLIKADKVQAQGFKGANVKVAVLDTGIQASHPDLNVVGGASFVAGEAYNTDGNGHGTHVAGTVAALDNTTGVLGVAPSVSLYAVKVLNSSGSGSYSGIVSGIEWATTNGMDVINMSLGGASGSTAMKQAVDNAYAKGVVVVAAAGNSGSSGNTNTIGYPAKYDSVIAVGAVDSNSNRASFSSVGAELEVMAPGAGVYSTYPTNTYATLNGTSMASPHVAGAAALILSKHPNLSASQVRNRLSSTATYLGSSFYYGKGLINVEAAAQ", "modifications": "commercial liquid concentrate"}}, "key": {"[1]": {"tested_on": "spores of Bacillus subtilis (ATCC #19659)", "assay": "AOAC test for Sporicidal Activity of Disinfectants, porcelain penicylinders, no organic soil load", "format": "cell-based", "details": "for Results: positive penicylinders: exposure 4 hours"}, "Azocasein [2]": {"tested_on": "Azocasein", "assay": "Azocasein hydrolysis (Abs390) by human trypsin or chymotrypsin in PAA/H2O2", "details": "23° C.", "method": "The activity for the PAA/H2O2 solution alone as a control is also given. […] A volume of 4.05 ml of 10 mM K3PO4 buffer was combined with 0.45 ml initial trypsin buffer solution and 45 mg Azocasein to prepare the trypsin/phosphate buffer solution for the test.\nA 0.22%^w/v PAA/1.17%^w/v H2O2 solution was prepared using a dilution of Degussa's 4.9%^w/w PAA/26.6%^w/w H2O2 in a volumetric flask. A volume of 4.05 ml of the latter solution was mixed with 0.45 ml initial trypsin/phosphate buffer solution and 45 mg Azocasein powder.\nAt 2.8 and 7 h, 1.5 ml sample aliquots were removed from the above three solutions and reacted with 1.5 ml of 10%^w/v trichloroacetic acid stop reagent. After incubating for 15-20 min, the solutions were filtered using Whatman #3 filter paper with a syringe and a Gelman 13 mm filter holder. The filtered solutions were then analyzed with a Shimadzu UV-visible 1601 spectrophotometer Abs390.\nAn additional example with human chymotrypsin follows. The solutions were similarly prepared as above."}, "Azocasein [3]": {"tested_on": "Azocasein", "assay": "In-situ protease activity assay: azocasein hydrolysis (Abs390) in H2O2/enzyme solutions", "details": "for Abs390 hydrolyzed azocasein solution: human chymotrypsin experiment, 23° C.; for Absorbance (normalized with dilution factor) of hydrolyzed Azocasein solution at 390 nm: pH 8.5, 23° C., 1% azocasein", "method": "Solutions of 7.5%^w/v H2O2 at various pH levels were prepared by adjusting the pH of 35%^w/w H2O2 solution (Degussa) with 10 mM K3PO4 in a volumetric flask in the presence of K2HPO4 (phosphate buffer, PB). The solution was diluted with 10 mM KH2PO4 solution of the same pH. […] Azocasein powder was added to the H2O2/Alcalase® mixed solutions to yield 0.4%^w/v azocasein. After 30 min at 23° C., 5 ml azocasein solution was mixed with 5 ml 10%^w/v TCA solution. Precipitates were removed after 15 min by filtration, and the supernatant Abs390 was measured.\nOne half hour prior to various time points (listed in Tables 5a-d), azocasein powder was added to the solution in an amount of 0.4% of the total solution weight. Abs390 of the solution was measured as in Example 4 except that the supernatant was diluted 6-7 fold to avoid saturation of the UV spectrophotometer.\nAn additional experiment employing the same method was conducted with human chymotrypsin."}, "[4]": {"details": "25 minutes contact at 20° C.; cited from earlier work"}, "[5]": {"tested_on": "Mycobacterium bovis (ATCC 35743)", "format": "cell-based"}, "Azocasein [6]": {"tested_on": "Azocasein", "assay": "Enzyme activity in 0.368% PAA/2% H2O2, modified Novo azocasein method", "method": "In a 100 ml volumetric flask, a solution was prepared using 7.5 ml of 4.9%^w/w (Degussa) PAA, 1 ml enzyme, and diluted with 0.2 M tris(hydroxymethyl)aminomethane to control the pH at 8.5 to yield a final concentration of 0.368%^w/v PAA/2%^w/v H2O2. […] A timer was started as soon as the combinations of enzymes and PAA/H2O2 were mixed. At periodic intervals, aliquots of the enzyme/PAA/H2O2 solutions were removed and diluted 64 times to react with the 0.6%^w/v Azocasein substrate solution in a water bath at the modified temperature of 30° C. for 30 min. After stopping the reaction with 10% TCA and filtering the precipitate, the supernatants were analyzed on a spectrophotometer at 390 nm."}}, "note": "Like-named read-outs stand apart in the source and are kept apart here.", "data": [{"molecule": "OO", "note": "[Sample 10, hydrogen peroxide]", "values": [{"measurement": "Results: positive penicylinders", "setting": "[1]", "result": 0, "unit": "positive"}]}, {"molecule": "Trypsin: human trypsin (Sigma)", "values": [{"measurement": "Absorbance at 390 nm of hydrolyzed Azocasein solution", "setting": "Azocasein [2]; pH 7.5, 1% azocasein, 2.8 h", "result": 1.4254}, {"measurement": "Absorbance at 390 nm of hydrolyzed Azocasein solution", "setting": "Azocasein [2]; pH 7.5, 1% azocasein, 7 h", "result": 1.5588}]}, {"molecule": "Chymotrypsin", "values": [{"measurement": "Absorbance at 390 nm of hydrolyzed Azocasein solution", "setting": "Azocasein [2]; pH 7.25, 2 h", "result": 2.716}, {"measurement": "Absorbance at 390 nm of hydrolyzed Azocasein solution", "setting": "Azocasein [2]; pH 7.25, 4 h", "result": 3.674}, {"measurement": "Absorbance Ratio of Chymotrypsin/Azocasein solutions with and without 7.5% H2O2", "setting": "Azocasein [3]; 2 h", "result": 0.308}, {"measurement": "Absorbance Ratio of Chymotrypsin/Azocasein solutions with and without 7.5% H2O2", "setting": "Azocasein [3]; 4 h", "result": 0.316}, {"measurement": "Abs390 hydrolyzed azocasein solution", "setting": "Azocasein [3]; pH 7.75, 2 h", "result": 2.541}, {"measurement": "Abs390 hydrolyzed azocasein solution", "setting": "Azocasein [3]; pH 7.75, 4 h", "result": 3.653}]}, {"molecule": "CC(=O)OO", "note": "[PAA, peracetic acid]", "values": [{"measurement": "minimum effective concentration for high-level disinfection", "setting": "[4]", "result": 0.05, "unit": "%w/w"}]}, {"molecule": "OO", "note": "[Solutions of 7.5% H2O2 alone, hydrogen peroxide]", "values": [{"measurement": "exposure at which sporicidal (no positive penicylinders)", "setting": "[1]", "result": "≤ 4", "unit": "h"}]}, {"molecule": "OO", "note": "[6% H2O2 pH 1.8, hydrogen peroxide]", "values": [{"measurement": "% Reduction", "setting": "[5]; contact time 5 min", "result": 98.65, "unit": "%"}, {"measurement": "log10 Reduction", "setting": "[5]; contact time 5 min", "result": 1.87}, {"measurement": "% Reduction", "setting": "[5]; contact time 10 min", "result": 99.25, "unit": "%"}, {"measurement": "log10 Reduction", "setting": "[5]; contact time 10 min", "result": 2.13}, {"measurement": "% Reduction", "setting": "[5]; contact time 15 min", "result": 99.51, "unit": "%"}, {"measurement": "log10 Reduction", "setting": "[5]; contact time 15 min", "result": 2.31}, {"measurement": "% Reduction", "setting": "[5]; contact time 20 min", "result": 99.38, "unit": "%"}, {"measurement": "log10 Reduction", "setting": "[5]; contact time 20 min", "result": 2.21}]}, {"molecule": "c1ccc2[nH]nnc2c1", "note": "[Benzotriazole, 1,2,3-benzotriazole]", "values": [{"measurement": "Absorbance (normalized with dilution factor) of hydrolyzed Azocasein solution at 390 nm", "setting": "Azocasein [3]; 7.4 mM Na3PO4, 0.5 h", "result": 0.0986}, {"measurement": "Absorbance (normalized with dilution factor) of hydrolyzed Azocasein solution at 390 nm", "setting": "Azocasein [3]; 7.4 mM Na3PO4, 4.5 h", "result": 0.1536}]}, {"molecule": "OO", "note": "[Sample 11, hydrogen peroxide]", "values": [{"measurement": "Results: positive penicylinders", "setting": "[1]", "result": 0, "unit": "positive"}]}, {"molecule": "B1", "values": [{"measurement": "decrease in activity", "setting": "Azocasein [6]; 0.368% PAA/2% H2O2, after 7.5 hours", "result": 13, "unit": "%"}, {"measurement": "Absorbance (proteolytic, 390 nm)", "setting": "Azocasein [6]; 0.368% PAA/2% H2O2, pH 8.5, 0 h", "result": 0.6534}, {"measurement": "Absorbance (proteolytic, 390 nm)", "setting": "Azocasein [6]; 0.368% PAA/2% H2O2, pH 8.5, 3.2 h", "result": 0.6417}, {"measurement": "Absorbance (proteolytic, 390 nm)", "setting": "Azocasein [6]; 0.368% PAA/2% H2O2, pH 8.5, 6.5 h", "result": 0.6729}, {"measurement": "Absorbance (proteolytic, 390 nm)", "setting": "Azocasein [6]; 0.368% PAA/2% H2O2, pH 8.5, 7.5 h", "result": 0.5689}]}]}
